# Laboratory results published in US20150361063A1, “TREATMENT OF AMYLOIDOSIS BY COMPOUNDS THAT REGULATE RETROMER STABILIZATION” (Brandeis University, priority 2011, published 2015).
# Key:
# [1] = biological target: T1, intact retromer complex (Homo sapiens, UniProt Q96QK1+Q9UBQ0); test: fluorescence thermal stability assay with reconstituted retromer; type: binding
# T1 construct: made in house
# Text: We set out to screen and identify compounds that stabilized the active retromer complex, thereby preventing VPS35 degradation and increasing the steady-state level of the complex, which may reduce toxic Abeta. To cast our net wider, we set out to perform virtual screening by docking first, and we were able to do that because crystal structures of several retromer components and, more importantly, the VPS35-VPS29 binary complex, had been published. […] After two years of trial and error in overcoming technical obstacles, we finally succeeded in expressing and purifying each of the individual retromer components separately, and then reconstituting the complete complex in vitro.
# We then obtained tested, in a real fluorescence stability assay using our reconstituted retromer, a total of about 50 compounds from our list of the 200 “top hits” in the docking run. It should be noted that there are a total of 7 sites that were identified from the computational surface mapping approach, and we considered anything with a G-score below −7.00 to be in the “top hits”. Four of the sites contained almost all the top hits, so compounds were actually assayed only if they were in the top 200 by G-score and were predicted to bind well to one of these four sites.
# [2] = test system: animal models for cancer; conditions: three different animal models for cancer; cited from earlier work
# [3] = test system: mice; conditions: up to 30 mg/kg; cited from earlier work
smiles,measurement,setting,value
"N=C(N)SCc1ccc(CSC(=N)N)s1 [compound 55712, [5-(carbamimidoylsulfanylmethyl)thiophen-2-yl]methyl carbamimidothioate]",hit in actual experimental assays,[1]; compounds from top docking hits of site 2 (VPS35-VPS29 interface),positive hits
same,stabilization of the intact retromer complex (thermal stability),"[1]; increase in thermal stability, reconstituted retromer, FIG. 1",10 degrees Celsius
same,antitumor activity,[2],no antitumor activity
same,toxicity to mice,[3],not toxic
